Data published in article PMC10333884, “Large‐scale phosphomimetic screening identifies phospho‐modulated motif‐based protein interactions” (Molecular Systems Biology, 2023).
Read-outs that look alike come from different tables or passages of the source. Values belong to the compound of their own block, whether it stands above or below them. Non-standard residues stand in square brackets, D forms with d. Residues, ends and D or L forms follow the SMILES beside them. pT = C[C@@H](OP(=O)(O)O)[C@H](N)C(=O)O; pS = N[C@@H](COP(=O)(O)O)C(=O)O

Key:
Type in all cases: binding
[1] = molecular target: T1, GABARAPL2 (Homo sapiens, UniProt P60520); assay: FP displacement assay, GABARAPL2
T1 construct: GABARAPL2_ATG8__P60520_2_115; GST (cleaved yes); made in house; host or cells: Escherichia coli BL21-Gold(DE3)
Protocol: (§1) FP experiments were performed as described previously (Kliche et al, [2021]). Shortly, in order to monitor the binding event, FITC‐labelled peptides were used (excitation 495 nm, emission: 535 nm) and the FP signal was recorded in mP on a SpectraMax iD5 Multi‐Mode Microplate Reader (Molecular Devices) by measuring the emitted light in two angels. The measurements were performed at room temperature and prepared in nonbinding black half area 96‐well microplates (Corning®; 50 μl/well). For measuring direct binding, that is saturation curves, a 1:1 dilution series of protein domain (25 μl/well) was generated in 50 mM sodium phosphate buffer pH 7.4 and the measurement performed with 5 nM FITC‐labelled peptide (25 μl/well). The buffer‐corrected values were subsequently plotted with PRISM and fitted to the quadratic equation (Gianni et al, [2005]).
(§2) The 1:1 dilution series in this experiment was performed with the unlabelled peptide in 50 mM sodium phosphate buffer pH 7.4, so that each well‐contained unlabelled peptide (25 μl) at a certain concentration and pre‐formed complex (25 μl). The KD values of this indirectly monitored binding event were calculated as described previously (Nikolovska‐Coleska et al, [2004]). All measurements were at least in technical triplicates as well as biological duplicates when indicated. An amplitude shift between repeat measurements in the displacement experiments was occasionally observed due to variations in the protein preparations. If that was the case, the “active” protein concentration was back‐calculated according to the quadratic equation from the saturation curves performed in parallel. By comparing the active protein concentrations in the complex between different protein preparations, the amplitude was normalised.

[2] = molecular target: T2, MAP1LC3A (Homo sapiens, UniProt Q9H492); assay: FP displacement assay, MAP1LC3A; details: for IC50: Fig 4B, MAP1LC3A ATG8, FP displacement, technical triplicates, read-out: IC50 values of displacement curves, with SEM; for Kd: read-out: KD values ± SEM
T2 construct: GST (cleaved yes); made in house; host or cells: Escherichia coli BL21-Gold(DE3)

[3] = molecular target: T3, MAP1LC3B (Homo sapiens, UniProt Q9GZQ8); assay: FP displacement assay, MAP1LC3B; details: read-out: KD values ± SEM
T3 construct: GST (cleaved yes); made in house; host or cells: Escherichia coli BL21-Gold(DE3)
Protocol: as §1, §2

[4] = molecular target: T4, SNX27 PDZ (Homo sapiens, UniProt Q96L92); assay: FP displacement assay, SNX27 PDZ (MBP-tagged); details: for Kd: MBP-tagged domain, probe FITC-SYT16 5 nM, 50 mM sodium phosphate pH 7.4, room temperature, at least three technical replicates, read-out: KD values ± SEM
T4 construct: SNX27_PDZ__Q96L92_40_141; made in house; host or cells: Escherichia coli BL21-Gold(DE3)
Protocol: For FP, ITC and crystallisation, the tag was removed with the appropriate protease either on beads (0.1 mg/ml thrombin (Cytiva) in PBS, 1 mM dithiothreitol (DTT)) or by dialysis in cleavage buffer (Human Rhinovirus (HRV) 3C protease: 50 mM Tris–HCl pH 7.4, 150 mM NaCl, 1 mM β‐mercaptoethanol), both procedures were overnight. In case of HRV protease cleavage, the tag was separated from the target protein domain by reverse ion metal affinity chromatography using Ni^2+ beads for purification, whereas thrombin was removed using a benzamidine column (Cytiva). Affinity measurements for SNX27 PDZ were performed on the MBP‐tagged construct, as well as PIN1 WW domain on the GST‐tagged construct. For FP and ITC, proteins were dialysed in 50 mM sodium phosphate buffer pH 7.4, 1 mM DTT. For crystallisation of the NTD of clathrin, the protein was further purified by a S200 Sepharose column (Cytiva) using 20 mM Tris–HCl pH 7.4, 150 mM NaCl and 1 mM DTT.
as §1, §2

[5] = molecular target: T5, MAP1LC3B ATG8 (Homo sapiens, UniProt Q9GZQ8); assay: ITC, MAP1LC3B ATG8; details: for Kd: ITC (iTC200), 50 mM sodium phosphate pH 7.4, 1 mM DTT, average of the runs, at least technical triplicates
T5 construct: MAP1LC3B ATG8; made in house; host or cells: Escherichia coli BL21-Gold(DE3)

[6] = molecular target: T6, GGA1 VHS (Homo sapiens, UniProt Q9UJY5); assay: FP displacement assay, GGA1 VHS
T6 construct: GGA1_VHS__Q9UJY5_1_157; GST (cleaved yes); made in house; host or cells: Escherichia coli BL21-Gold(DE3)
T6 sequence (Q9UJY5 1-157): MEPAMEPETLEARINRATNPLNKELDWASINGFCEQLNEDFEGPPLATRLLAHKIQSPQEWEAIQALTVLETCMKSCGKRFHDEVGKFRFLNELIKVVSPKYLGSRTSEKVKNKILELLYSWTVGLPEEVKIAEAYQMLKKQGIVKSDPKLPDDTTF
Protocol: as §1, §2

[7] = ITC single run: date 200402, injection 1
[8] = ITC single run: date 200402, injection 2
[9] = ITC single run: date 200402, injection 3

T1 sequence (P60520 2-115): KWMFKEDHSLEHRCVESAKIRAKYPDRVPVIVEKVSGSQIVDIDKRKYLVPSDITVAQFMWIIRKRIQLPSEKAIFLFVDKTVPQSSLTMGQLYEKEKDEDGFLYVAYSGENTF

SMILES: CC(=O)N[C@@H](C)C(=O)N[C@@H](CC(N)=O)C(=O)N[C@@H](CO)C(=O)N[C@@H](Cc1c[nH]c2ccccc12)C(=O)N[C@@H](CCC(N)=O)C(=O)N[C@@H](CC(C)C)C(=O)N[C@H](C(=O)N[C@@H](CCC(=O)O)C(=O)N[C@H](C(=O)N1CCC[C@H]1C(=O)N[C@@H](CCC(=O)O)C(=O)N[C@@H](CCCCN)C(=O)N[C@@H](CCCNC(=N)N)C(=O)N[C@@H](CCCCN)C(=O)N[C@@H](CCC(=O)O)C(=O)N[C@@H](CCC(=O)O)C(N)=O)[C@@H](C)O)C(C)C [DLGAP4_907–922 wt] (Ac-ANSWQLVETPEKRKEE-NH2)
- Kd ([1]; read-out: KD values ± SEM): 174 ± 22 µM

SMILES: CC(=O)N[C@@H](Cc1ccc(O)cc1)C(=O)N[C@@H](CCCCN)C(=O)N[C@@H](CCCCN)C(=O)N[C@@H](CCC(N)=O)C(=O)N[C@@H](CC(C)C)C(=O)N[C@@H](CCCCN)C(=O)N[C@@H](CCCNC(=N)N)C(=O)N[C@@H](Cc1ccccc1)C(=O)N[C@@H](COP(=O)(O)O)C(=O)N[C@H](C(=O)N[C@@H](CCC(=O)O)C(=O)N[C@@H](CCC(=O)O)C(=O)N[C@@H](Cc1ccccc1)C(=O)N[C@H](C(=O)N[C@@H](CC(C)C)C(=O)N[C@@H](CC(C)C)C(=O)O)C(C)C)[C@@H](C)O [ATG4C444–458 pS]
- Kd ([1]; read-out: KD values ± SEM): 0.1 ± 0.2 µM
- IC50 [2]: 5.5 ± 0.7 µM
- Kd [2]: 1.3 ± 0.1 µM
- Kd [3]: 1.9 ± 0.3 µM

SMILES: CC(=O)N[C@@H](C)C(=O)N[C@@H](CC(N)=O)C(=O)N[C@@H](CO)C(=O)N[C@@H](Cc1c[nH]c2ccccc12)C(=O)N[C@@H](CCC(N)=O)C(=O)N[C@@H](CC(C)C)C(=O)N[C@H](C(=O)N[C@@H](CCC(=O)O)C(=O)N[C@H](C(=O)N1CCC[C@H]1C(=O)N[C@@H](CCC(=O)O)C(=O)N[C@@H](CCCCN)C(=O)N[C@@H](CCCNC(=N)N)C(=O)N[C@@H](CCCCN)C(=O)N[C@@H](CCC(=O)O)C(=O)N[C@@H](CCC(=O)O)C(N)=O)[C@@H](C)OP(=O)(O)O)C(C)C [DLGAP4_907–922 pS] (Ac-ANSWQLVE[pT]PEKRKEE-NH2)
- Kd [1]: 150 ± 32 µM

- Kd [4]: 111 ± 17 µM
SMILES: CC(=O)N[C@@H](CC(N)=O)C(=O)N[C@@H](CC(C)C)C(=O)N[C@@H](CC(C)C)C(=O)N[C@@H](CC(C)C)C(=O)N[C@@H](CCC(=O)O)C(=O)N[C@@H](CCCNC(=N)N)C(=O)N[C@@H](CC(=O)O)C(=O)N[C@H](C(=O)N[C@@H](CO)C(=O)N[C@@H](Cc1ccccc1)C(=O)N[C@H](C(=O)N[C@H](C(=O)N[C@@H](C)C(=O)N1CCC[C@H]1C(=O)N[C@@H](CC(=O)O)C(=O)N[C@@H](Cc1ccc(O)cc1)C(N)=O)C(C)C)[C@@H](C)O)[C@@H](C)O [CDC25C30–44 wt] (Ac-NLLLERDTSFTVAPDY-NH2)

SMILES: CC(=O)N[C@@H](CC(C)C)C(=O)N[C@@H](CCC(=O)O)C(=O)N[C@@H](CC(=O)O)C(=O)N[C@@H](CC(=O)O)C(=O)N[C@@H](CCC(=O)O)C(=O)N[C@@H](CCC(N)=O)C(=O)N[C@@H](Cc1ccccc1)C(=O)N[C@H](C(=O)N[C@@H](CO)C(=O)N[C@@H](CC(C)C)C(=O)N[C@@H](Cc1ccc(O)cc1)C(=O)NCC(=O)N[C@H](C(=O)N[C@@H](CCC(=O)O)C(=O)N[C@@H](CCC(=O)O)C(=O)N[C@@H](Cc1ccc(O)cc1)C(N)=O)[C@@H](C)O)C(C)C [TBK1_164–179 wt]
- Kd ([1]; read-out: KD values ± SEM): 19 ± 4 µM
- Kd [3]: 10.5 ± 0.1 µM
- Kd [5]: 8 µM
- Ka ([5]; ITC single run: date 2101 new, injection 1): 84300
- Ka [5, 7]: 143000
- Ka [5, 8]: 170000
- Ka [5, 9]: 144000

SMILES: CC(=O)N[C@@H](CC(C)C)C(=O)N[C@@H](CCC(=O)O)C(=O)N[C@@H](CC(=O)O)C(=O)N[C@@H](CC(=O)O)C(=O)N[C@@H](CCC(=O)O)C(=O)N[C@@H](CCC(N)=O)C(=O)N[C@@H](Cc1ccccc1)C(=O)N[C@H](C(=O)N[C@@H](COP(=O)(O)O)C(=O)N[C@@H](CC(C)C)C(=O)N[C@@H](Cc1ccc(O)cc1)C(=O)NCC(=O)N[C@H](C(=O)N[C@@H](CCC(=O)O)C(=O)N[C@@H](CCC(=O)O)C(=O)N[C@@H](Cc1ccc(O)cc1)C(N)=O)[C@@H](C)O)C(C)C [TBK1_164–179 pS]
- Kd ([1]; read-out: KD values ± SEM): 2.8 ± 0.6 µM
- Kd [3]: 1.3 ± 0.3 µM
- Kd [5]: 2.67 µM
- Ka [5, 7]: 270000
- Ka [5, 8]: 480000
- Ka [5, 9]: 520000

SMILES: CC(=O)N[C@@H](CC(=O)O)C(=O)N[C@@H](CC(C)C)C(=O)N[C@@H](CC(C)C)C(=O)N[C@H](C(=O)N[C@@H](CO)C(=O)N1CCC[C@H]1C(=O)N[C@@H](CC(=O)O)C(=O)N[C@H](C(=O)NCC(=O)N[C@@H](CC(C)C)C(=O)N[C@@H](CC(C)C)C(=O)N[C@@H](CCCCN)C(=O)N[C@@H](CC(C)C)C(=O)N[C@@H](C)C(=O)N[C@@H](CO)C(=O)N[C@@H](Cc1ccc(O)cc1)C(N)=O)C(C)C)[C@@H](C)O [JUN59–73 wt] (Ac-DLLTSPDVGLLKLASY-NH2)
- Kd [6]: 470 ± 50 µM

- Kd [4]: 300 ± 125 µM
SMILES: CSCC[C@H](NC(=O)CNC(C)=O)C(=O)N[C@H](C(=O)N[C@@H](CO)C(=O)N[C@@H](CO)C(=O)N[C@H](C(=O)N[C@@H](CO)C(=O)N[C@@H](Cc1ccccc1)C(=O)N[C@@H](CC(N)=O)C(=O)NCC(=O)NCC(=O)N[C@@H](Cc1ccc(O)cc1)C(N)=O)[C@@H](C)O)C(C)C [DAXX606–616 wt] (Ac-GMVSSTSFNGGY-NH2)

- Kd [4]: 395 ± 63 µM
SMILES: CC(=O)N[C@@H](CC(N)=O)C(=O)N[C@@H](CC(C)C)C(=O)N[C@@H](CC(C)C)C(=O)N[C@@H](CC(C)C)C(=O)N[C@@H](CCC(=O)O)C(=O)N[C@@H](CCCNC(=N)N)C(=O)N[C@@H](CC(=O)O)C(=O)N[C@H](C(=O)N[C@@H](COP(=O)(O)O)C(=O)N[C@@H](Cc1ccccc1)C(=O)N[C@H](C(=O)N[C@H](C(=O)N[C@@H](C)C(=O)N1CCC[C@H]1C(=O)N[C@@H](CC(=O)O)C(=O)N[C@@H](Cc1ccc(O)cc1)C(N)=O)C(C)C)[C@@H](C)O)[C@@H](C)O [CDC25C30–44 pS] (Ac-NLLLERDT[pS]FTVAPDY-NH2)

- IC50 ([4]; Fig 4B, SNX27 PDZ, technical triplicates, read-out: IC50 values of displacement curves, with SEM): 427 ± 39 µM
- Kd [4]: 96 ± 5 µM
SMILES: CSCC[C@H](NC(=O)CNC(C)=O)C(=O)N[C@H](C(=O)N[C@@H](CO)C(=O)N[C@@H](COP(=O)(O)O)C(=O)N[C@H](C(=O)N[C@@H](CO)C(=O)N[C@@H](Cc1ccccc1)C(=O)N[C@@H](CC(N)=O)C(=O)NCC(=O)NCC(=O)N[C@@H](Cc1ccc(O)cc1)C(N)=O)[C@@H](C)O)C(C)C [DAXX606–616 pS] (Ac-GMVS[pS]TSFNGGY-NH2)

SMILES: CC(=O)N[C@@H](Cc1ccc(O)cc1)C(=O)N[C@@H](CCCCN)C(=O)N[C@@H](CCCCN)C(=O)N[C@@H](CCC(N)=O)C(=O)N[C@@H](CC(C)C)C(=O)N[C@@H](CCCCN)C(=O)N[C@@H](CCCNC(=N)N)C(=O)N[C@@H](Cc1ccccc1)C(=O)N[C@@H](CO)C(=O)N[C@H](C(=O)N[C@@H](CCC(=O)O)C(=O)N[C@@H](CCC(=O)O)C(=O)N[C@@H](Cc1ccccc1)C(=O)N[C@H](C(=O)N[C@@H](CC(C)C)C(=O)N[C@@H](CC(C)C)C(=O)O)C(C)C)[C@@H](C)O [ATG4C444–458 wt]
- Kd ([1]; read-out: KD values ± SEM): 0.8 ± 0.4 µM
- IC50 [2]: 17 ± 1 µM
- Kd [2]: 5.2 ± 0.2 µM
- Kd [3]: 7.1 ± 0.6 µM
